# Source: ChEMBL document CHEMBL1156451 (J Biol Chem, 2007)
# Active and inactive are the calls of the source. The calls are words filed in the database; no cut-off is given here. Where a SMILES comes first, the peptide text is derived from it.
# Key:
# [1] = system: Brucella abortus; assay: Antibacterial activity against Brucella abortus 9.49 (per-) after 48 hrs in Mueller-Hinton broth medium; assay type: functional
# [2] = system: Bordetella bronchiseptica; assay: Antibacterial activity against Bordetella bronchiseptica CUN 11844-99 after 24 hrs in Mueller-Hinton broth medium; assay type: functional
# [3] = system: Staphylococcus aureus; assay: Antibacterial activity against methicillin-resistant Staphylococcus aureus ATCC 43300 after 24 hrs in Mueller-Hinton broth medium; assay type: functional; details: ATCC 43300, 24 h
# [4] = system: Pseudomonas aeruginosa; assay: Antibacterial activity against Pseudomonas aeruginosa CUN 4158-02 after 24 hrs in Mueller-Hinton broth medium; assay type: functional
# [5] = system: Escherichia coli; assay: Antibacterial activity against Escherichia coli ATCC 25922 after 24 hrs in Mueller-Hinton broth medium; assay type: functional; details: ATCC 25922, 24 h
# [6] = system: Acinetobacter baumannii; assay: Antibacterial activity against Acinetobacter baumannii ATCC 19606 after 24 hrs in Mueller-Hinton broth medium; assay type: functional; details: ATCC 19606, 24 h
# [7] = system: HeLa; assay: Cytotoxicity against human HeLa cells at 100 ug/ml after 24 hrs by MTT assay relative to control; assay type: functional
# [8] = Toxicity in human erythrocytes assessed as hemolysis; assay type: cell-based; details: erythrocyte
# [9] = system: Brucella abortus; assay: Antibacterial activity against Brucella abortus 9.19 (per-) after 24 hrs in Mueller-Hinton broth medium; assay type: functional
# [10] = system: Escherichia coli; assay: Antibacterial activity against Escherichia coli K12 ATCC 23716 after 24 hrs in Mueller-Hinton broth medium; assay type: functional; details: K12, 24 h
# [11] = system: Escherichia coli; assay: Antibacterial activity against Escherichia coli K12 ATCC 23716 in 10% Luria-Bertani medium/90% Hepes buffer at pH 7.0; assay type: functional
# [12] = system: HeLa; assay: Cytotoxicity against human HeLa cells at 100 ug/ml after 24 hrs by neutral red uptake assay relative to control; assay type: functional
# [13] = Toxicity in human erythrocytes assessed as hemolysis at 100 ug/ml; assay type: cell-based, Erythrocyte; details: read-out: Activity
Compound,MIC [1] [µg/mL],MBC [2] [µg/mL],MIC [2] [µg/mL],MBC [3] [µg/mL],MIC [3] [µg/mL],MBC [4] [µg/mL],MIC [4] [µg/mL],MBC [5] [µg/mL],MIC [5] [µg/mL],MBC [6] [µg/mL],MIC [6] [µg/mL],Activity [7],Activity [8],MBC [9] [µg/mL],MBC [10] [µg/mL],MIC [10] [µg/mL],MBC [11] [µg/mL],MIC [11] [µg/mL],Activity [12] [%],hemolysis at 100 ug/ml [13] [%]
CC[C@H](C)[C@H](NC(=O)[C@H](CCCCN)NC(=O)[C@H](CCCCN)NC(=O)[C@H](CO)NC(=O)[C@@H](NC(=O)CNC(=O)[C@H](CCCNC(=N)N)NC(=O)[C@H](CC(C)C)NC(=O)[C@@H](NC(=O)[C@@H](N)CCCCN)[C@@H](C)CC)C(C)C)C(=O)N[C@@H](CCSC)C(=O)N[C@@H](CCCNC(=N)N)C(=O)N[C@H](C(=O)N[C@@H](Cc1ccccc1)C(=O)N[C@@H](CC(C)C)C(=O)N[C@@H](CCCNC(=N)N)C(=O)N[C@@H](CCCNC(=N)N)C(=O)N[C@H](C(=O)N[C@@H](CC(C)C)C(=O)N[C@H](C(=O)NCC(=O)N[C@@H](CCCCN)C(=O)N[C@@H](CCCCN)C(N)=O)[C@@H](C)O)[C@@H](C)CC)[C@@H](C)O (H-KILRGVSKKIMRTFLRRILTGKK-NH2),4,2,2,256,64,4,4,4,4,4,4,inactive,Toxic,4,8,8,25,19,–,–
CC[C@H](C)[C@H](NC(=O)[C@H](CCCCN)NC(=O)[C@H](CCCCN)NC(=O)[C@H](CO)NC(=O)[C@@H](NC(=O)[C@@H](N)CCCCN)[C@@H](C)CC)C(=O)N[C@@H](CCSC)C(=O)N[C@@H](CCCNC(=N)N)C(=O)N[C@H](C(=O)N[C@@H](Cc1ccccc1)C(=O)N[C@@H](CC(C)C)C(=O)N[C@@H](CCCNC(=N)N)C(=O)N[C@@H](CCCNC(=N)N)C(=O)N[C@H](C(=O)N[C@@H](CC(C)C)C(=O)N[C@H](C(=O)NCC(=O)N[C@@H](CCCCN)C(=O)N[C@@H](CCCCN)C(N)=O)[C@@H](C)O)[C@@H](C)CC)[C@@H](C)O (H-KISKKIMRTFLRRILTGKK-NH2),2,128,128,256,256,8,8,16,16,4,4,21.1%,–,32,8,8,50,25,56.4,–
CC[C@H](C)[C@H](NC(=O)[C@H](CCCCN)NC(=O)[C@H](CCCCN)NC(=O)[C@H](CO)NC(=O)[C@@H](NC(=O)[C@@H](N)CCCCN)[C@@H](C)CC)C(=O)N[C@@H](CCSC)C(=O)N[C@@H](CCCNC(=N)N)C(=O)N[C@H](C(=O)N[C@@H](Cc1ccccc1)C(=O)N[C@@H](CC(C)C)C(=O)N[C@@H](CCCNC(=N)N)C(=O)N[C@@H](CCCNC(=N)N)C(N)=O)[C@@H](C)O (H-KISKKIMRTFLRR-NH2),16,32,16,> 256,> 256,256,256,128,64,256,256,6.4%,–,> 256,16,16,12.5,12.5,18.5,< 5
CC[C@H](C)[C@H](NC(=O)[C@H](CCCNC(=N)N)NC(=O)[C@H](CCCNC(=N)N)NC(=O)[C@H](CC(C)C)NC(=O)[C@H](Cc1ccccc1)NC(=O)[C@@H](NC(=O)[C@H](CCCNC(=N)N)NC(=O)[C@H](CCSC)NC(=O)[C@@H](NC(=O)[C@H](CCCCN)NC(=O)[C@H](CCCCN)NC(=O)[C@H](CO)NC(=O)[C@@H](NC(=O)CNC(=O)[C@H](CCCNC(=N)N)NC(=O)[C@H](CC(C)C)NC(=O)[C@@H](NC(=O)[C@@H](N)CCCCN)[C@@H](C)CC)C(C)C)[C@@H](C)CC)[C@@H](C)O)C(=O)N[C@@H](CO)C(=O)N[C@@H](CCCCN)C(=O)N[C@@H](CC(=O)O)C(=O)N[C@H](C(=O)N[C@@H](CC(C)C)C(=O)N[C@H](C(=O)NCC(=O)N[C@@H](CCCCN)C(=O)N[C@@H](CCCCN)C(=O)O)[C@@H](C)O)[C@@H](C)CC (H-KILRGVSKKIMRTFLRRISKDILTGKK-OH),–,–,–,–,–,–,–,–,–,–,–,6.5%,–,–,–,–,8,8,6.9,< 5
